Assay [1] relates to log phase and stationary phase B. burgdorferi culture. In words: Antibiotic exposure assay, SYBR Green I/PI (drugs alone and combinations). A digest of the protocol: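 Stationary-phase or round-body B. burgdorferi exposed 7 days at 33 °C to drugs alone or combined at 10 μg/mL each (single-compound screen: 50 μM final). Viability by SYBR Green I/PI, ex 485, em 535/635 nm; percent live from regression of green/red ratio, corrected by direct microscopy counting.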

Assay [2] concerns stationary phase B. burgdorferi persisters (strain B31). The assay can be described thus: epifluorescence microscope counting after SYBR Green I/PI staining, FDA drug screen. To be noted: Borreliella burgdorferi, 168 h, read-out: Residual viable cells (epifluorescence microscope counting).

As for `C[C@H]1c2cccc(O)c2C(=O)C2=C(O)[C@]3(O)C(=O)C(C(N)=O)=C(O)[C@@H](N(C)C)[C@@H]3[C@@H](O)[C@@H]21` [Doxycycline], in assay [1] (10 μg/mL drugs or combinations, 7 days), the “Live cell %, ten day old stationary phase culture (in brackets)” value is 72%. Further, in assay [1] (Borreliella burgdorferi, 168 h, read-out: Live Cell % (residual viable B. burgdorferi), ten-day-old stationary phase culture enriched with micro-colonies, 10 μg/mL each drug, 7 days), the viability at 10 µg/mL amounted to 72%. The viability at 50 µM in assay [2] turned out to be 75%.

The values are drawn from US20170058314A1, “NOVEL METHODOLOGY FOR IDENTIFYING ANTI-PERSISTER ACTIVITY AND ANTIMICROBIAL SUSCEPTIBILITY FOR BORRELIA BURGDORFERI AND OTHER BACTERIA” (priority 2014, published 2017).
